From patent US20240270698A2, “NOVEL PYRIMIDINE DERIVATIVE AND USE THEREOF” (KOREA RESEARCH INSTITUTE OF CHEMICAL TECHNOLOGY, priority 2019, published 2024)

Columns and labels:
[1] = target: T1, human recombinant MLK3 protein (Homo sapiens, UniProt Q16584); assay: MLK3 kinase activity assay (Eurofins, gamma-33P-ATP, filtermat scintillation counting); assay type: biochemical; settings: human recombinant MLK3, 120 minutes at room temperature
T1 construct: purchased Eurofins
Procedure: (§1) Compounds 1 to 119 synthesized in Example 1 according to the present disclosure were assayed for inhibitory activity against MLK3/LRRK2 enzymes and anticancer activity against HepG2/HS746T cancer cells, and the results are summarized in Table 1, below.
(§2) Inhibitory activity against MLK3 and LRRK2 enzymes was evaluated in Eurofins. In brief, human recombinant MLK3 protein was mixed with the compounds in a reaction buffer (8 mM MOPS (pH 7.0), 0.2 mM EDTA, 0.33 mg/mL myelin basic protein, 5 mM DTT) to which a mixture of 10 mM magnesium acetate and gamma-33P-ATP was then added before incubation at room temperature for 120 minutes. Afterward, the reaction was terminated with 0.5% phosphoric acid. Ten μL of the total mixture was spotted onto a P30 filtermat which was then washed four times for 4 minutes with 0.425% phosphoric acid and once in methanol prior to scintillation counting. Values for the activity of MLK3 were expressed as % of the control. For the activity of LRRK2, human recombinant LRRK2 protein was mixed with the compounds in a reaction buffer (50 mM HEPES (pH 8.0), 0.2 mM EDTA, 0.01% Brij-35, 1% (w/v) BSA, 5 mM DTT, 250 uM substrate peptide RLGRDKYKTLRQIRQ) and then reacted with a mixture of 10 mM magnesium acetate and gamma-33P-ATP at room temperature for 40 minutes. Afterward, the reaction was terminated with 0.5% phosphoric acid. Ten μL of the total mixture was spotted onto a P30 filtermat which was then washed four times for 4 minutes with 0.425% phosphoric acid and once in methanol prior to scintillation counting. Values for the activity of LRRK2 were expressed as % of the control.

[2] = target: T2, human recombinant LRRK2 protein (Homo sapiens, UniProt Q5S007); assay: LRRK2 kinase activity assay (Eurofins, gamma-33P-ATP, filtermat scintillation counting); assay type: biochemical; settings: human recombinant LRRK2, 40 minutes at room temperature
T2 construct: purchased Eurofins
Procedure: as §1, §2

HepG2 cancer cells = assay: Anticancer activity, cell viability by CCK-8, HepG2; assay type: cell-based; settings: HepG2, 10 μM, 72 hours
Procedure: (§3) Compounds 1 to 119 synthesized in Example 1 according to the present disclosure were assayed for inhibitory activity against MLK3/LRRK2 enzymes and anticancer activity against HepG2/H[…] cancer cells, and the results are summarized in Table 1, below. Assay for anticancer activity was conducted as follows. HepG2 and H[…] cancer cells were purchased from the Korean Cell Line Bank and cultured according to the instruction provided thereby. One hundred μL of a culture of the cells were seeded at a density of 4,000 cells/well into 96-well plates. After 24 hours, the cells were treated with the compounds for 72 hours. Then, cell viability was assayed using CCK-8 and expressed as % of the control.

HS746T cancer cells = assay: Anticancer activity, cell viability by CCK-8, HS746T; assay type: cell-based; settings: 72 hours
Procedure: as §3

T1 sequence (Q16584 whole entry): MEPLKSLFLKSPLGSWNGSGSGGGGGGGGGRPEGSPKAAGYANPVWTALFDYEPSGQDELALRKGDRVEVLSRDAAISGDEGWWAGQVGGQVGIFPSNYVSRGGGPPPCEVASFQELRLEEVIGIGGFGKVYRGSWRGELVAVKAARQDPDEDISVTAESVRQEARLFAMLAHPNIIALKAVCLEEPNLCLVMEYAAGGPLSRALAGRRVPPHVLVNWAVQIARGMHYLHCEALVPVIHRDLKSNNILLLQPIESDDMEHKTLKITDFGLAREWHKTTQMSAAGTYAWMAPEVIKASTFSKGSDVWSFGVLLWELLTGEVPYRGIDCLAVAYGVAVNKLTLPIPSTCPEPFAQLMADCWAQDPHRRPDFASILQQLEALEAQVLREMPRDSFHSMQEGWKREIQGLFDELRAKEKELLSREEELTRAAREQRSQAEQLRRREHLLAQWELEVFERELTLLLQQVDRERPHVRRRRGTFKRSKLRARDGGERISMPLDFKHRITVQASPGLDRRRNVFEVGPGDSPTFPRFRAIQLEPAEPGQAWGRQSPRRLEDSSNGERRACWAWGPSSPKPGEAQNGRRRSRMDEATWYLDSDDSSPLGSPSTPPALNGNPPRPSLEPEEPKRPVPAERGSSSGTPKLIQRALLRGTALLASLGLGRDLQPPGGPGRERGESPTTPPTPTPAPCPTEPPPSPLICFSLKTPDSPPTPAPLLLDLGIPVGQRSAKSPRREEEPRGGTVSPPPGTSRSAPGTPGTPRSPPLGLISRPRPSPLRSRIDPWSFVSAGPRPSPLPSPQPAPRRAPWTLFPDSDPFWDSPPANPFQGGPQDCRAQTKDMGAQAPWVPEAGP
T2 sequence (Q5S007 whole entry): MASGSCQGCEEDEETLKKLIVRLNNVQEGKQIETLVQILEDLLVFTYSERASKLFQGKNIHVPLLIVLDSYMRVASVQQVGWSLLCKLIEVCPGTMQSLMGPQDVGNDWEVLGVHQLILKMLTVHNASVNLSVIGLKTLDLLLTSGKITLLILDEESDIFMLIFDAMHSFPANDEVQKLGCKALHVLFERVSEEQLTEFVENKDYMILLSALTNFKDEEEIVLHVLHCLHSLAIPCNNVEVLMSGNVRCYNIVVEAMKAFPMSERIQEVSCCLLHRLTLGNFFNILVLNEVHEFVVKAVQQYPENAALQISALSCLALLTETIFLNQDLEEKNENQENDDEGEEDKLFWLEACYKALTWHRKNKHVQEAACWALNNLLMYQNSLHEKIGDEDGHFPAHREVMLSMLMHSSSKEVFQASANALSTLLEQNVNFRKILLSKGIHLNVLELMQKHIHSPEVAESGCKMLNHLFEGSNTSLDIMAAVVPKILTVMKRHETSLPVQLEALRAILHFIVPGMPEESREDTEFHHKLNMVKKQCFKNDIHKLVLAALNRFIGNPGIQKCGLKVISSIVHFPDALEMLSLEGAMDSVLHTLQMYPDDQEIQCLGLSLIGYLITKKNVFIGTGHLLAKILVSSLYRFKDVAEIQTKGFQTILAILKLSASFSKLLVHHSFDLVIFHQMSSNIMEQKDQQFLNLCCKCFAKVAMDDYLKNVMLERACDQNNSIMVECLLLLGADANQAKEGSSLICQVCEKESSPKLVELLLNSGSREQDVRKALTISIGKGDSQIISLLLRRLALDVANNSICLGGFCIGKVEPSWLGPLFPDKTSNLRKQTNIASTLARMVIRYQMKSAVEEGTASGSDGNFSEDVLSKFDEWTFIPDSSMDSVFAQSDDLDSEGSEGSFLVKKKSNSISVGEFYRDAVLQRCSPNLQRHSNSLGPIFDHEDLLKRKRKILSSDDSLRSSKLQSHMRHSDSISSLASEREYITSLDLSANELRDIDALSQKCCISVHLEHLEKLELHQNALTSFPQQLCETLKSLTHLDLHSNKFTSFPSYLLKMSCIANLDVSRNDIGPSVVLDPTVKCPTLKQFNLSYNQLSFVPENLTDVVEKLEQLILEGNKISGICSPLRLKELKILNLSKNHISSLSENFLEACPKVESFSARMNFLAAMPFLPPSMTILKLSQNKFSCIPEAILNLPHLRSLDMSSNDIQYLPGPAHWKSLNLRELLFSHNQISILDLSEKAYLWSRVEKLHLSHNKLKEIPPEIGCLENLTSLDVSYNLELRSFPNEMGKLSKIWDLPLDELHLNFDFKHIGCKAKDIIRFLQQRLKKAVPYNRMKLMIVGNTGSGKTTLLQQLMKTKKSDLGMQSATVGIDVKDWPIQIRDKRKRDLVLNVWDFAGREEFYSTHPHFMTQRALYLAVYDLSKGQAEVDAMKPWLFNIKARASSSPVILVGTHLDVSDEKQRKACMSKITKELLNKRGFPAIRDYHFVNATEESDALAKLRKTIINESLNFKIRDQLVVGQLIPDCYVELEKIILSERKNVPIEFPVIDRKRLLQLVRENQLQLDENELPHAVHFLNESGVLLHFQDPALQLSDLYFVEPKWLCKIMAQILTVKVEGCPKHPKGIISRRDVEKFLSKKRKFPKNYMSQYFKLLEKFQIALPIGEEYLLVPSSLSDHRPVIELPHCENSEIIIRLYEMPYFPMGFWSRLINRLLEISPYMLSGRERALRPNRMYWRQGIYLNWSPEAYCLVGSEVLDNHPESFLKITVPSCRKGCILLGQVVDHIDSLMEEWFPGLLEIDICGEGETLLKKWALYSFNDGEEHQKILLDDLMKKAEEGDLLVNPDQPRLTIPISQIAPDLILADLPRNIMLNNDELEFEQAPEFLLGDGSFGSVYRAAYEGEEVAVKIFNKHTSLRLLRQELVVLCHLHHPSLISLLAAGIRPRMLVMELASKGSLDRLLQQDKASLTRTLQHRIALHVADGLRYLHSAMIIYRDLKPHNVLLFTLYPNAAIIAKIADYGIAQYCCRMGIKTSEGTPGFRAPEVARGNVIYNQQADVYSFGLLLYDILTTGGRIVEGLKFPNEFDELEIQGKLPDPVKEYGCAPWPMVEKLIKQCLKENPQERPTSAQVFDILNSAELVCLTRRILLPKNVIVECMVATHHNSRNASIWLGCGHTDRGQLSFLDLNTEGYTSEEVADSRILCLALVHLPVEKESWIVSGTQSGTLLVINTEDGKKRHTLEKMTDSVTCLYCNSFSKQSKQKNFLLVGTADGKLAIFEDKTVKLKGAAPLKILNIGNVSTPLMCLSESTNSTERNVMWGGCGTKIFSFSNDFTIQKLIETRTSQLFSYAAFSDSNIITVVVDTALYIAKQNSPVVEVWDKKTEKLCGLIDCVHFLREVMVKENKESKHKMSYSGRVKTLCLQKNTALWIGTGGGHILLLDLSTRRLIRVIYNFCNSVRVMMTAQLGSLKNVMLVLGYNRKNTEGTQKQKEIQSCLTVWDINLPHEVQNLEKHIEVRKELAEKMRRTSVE

SMILES | IC50 [1] | IC50 [2] | Cell viability (% of Con. 10 μM) HepG2 (HepG2 cancer cells) | Cell viability (% of Con. 10 μM) HS746T (HS746T cancer cells)
CP(C)(=O)c1ccccc1Nc1nc(Nc2ccc3[nH]nc(-c4ccc(O)cc4)c3c2)ncc1Cl [compound 108, (2-((5-chloro-2-((3-(4-hydroxyphenyl)-1H-indazol-5-yl)amino)pyrimidin-4-yl)amino)phenyl)dimethylphosphine oxide] | 1 to 10 nM | 10 to 100 nM | 67 % of Con. | 8 % of Con.
CP(C)(=O)c1ccccc1Nc1nc(Nc2ccc3[nH]nc(-c4cccc(O)c4)c3c2)ncc1Cl [compound 118, (2-((5-chloro-2-((3-(3-hydroxyphenyl)-1H-indazol-5-yl)amino)pyrimidin-4-yl)amino)phenyl)dimethylphosphine oxide] | 1 to 10 nM | 10 to 100 nM | 43 % of Con. | 5 % of Con.
Cc1ccc(-c2n[nH]c3ccc(Nc4ncc(Cl)c(Nc5ccccc5P(C)(C)=O)n4)cc23)cc1Cl [compound 112, (2-((5-Chloro-2-((3-(3-chloro-4-methylphenyl)-1H-indazol-5-yl)amino)pyrimidin-4-yl)amino)phenyl)dimethylphosphine oxide] | 1 to 10 nM | 10 to 100 nM | 6 % of Con. | 7 % of Con.
CC(=O)c1ccc(-c2n[nH]c3ccc(Nc4ncc(Cl)c(Nc5ccccc5P(C)(C)=O)n4)cc23)cc1 [compound 106, 1-(4-(5-((5-chloro-4-((2-(dimethylphosphoryl)phenyl)amino)pyrimidin-2-yl)amino)-1H-indazol-3-yl)phenyl)ethan-1-one] | 1 to 10 nM | 10 to 100 nM | 75 % of Con. | 17 % of Con.
CC(C)Oc1cc(F)cc(-c2n[nH]c3ccc(Nc4ncc(Cl)c(Nc5ccccc5P(C)(C)=O)n4)cc23)c1 [compound 115, (2-((5-Chloro-2-((3-(3-fluoro-5-isopropoxyphenyl)-1H-indazol-5-yl)amino)pyrimidin-4-yl)amino)phenyl)dimethylphosphine oxide] | 1 to 10 nM | 1 to 10 nM | 50 % of Con. | 10 % of Con.
CP(C)(=O)c1ccccc1Nc1nc(NCc2ccccc2)ncc1Cl [compound 14, (2-((2-(Benzylamino)-5-chloropyrimidin-4-yl)amino)phenyl) dimethylphosphine oxide] | > 1000 nM | > 1000 nM | 108 % of Con. | 110 % of Con.
CP(C)(=O)c1ccccc1Nc1nc(Nc2ccc3[nH]nc(-c4ccc(F)c(Cl)c4)c3c2)ncc1Cl [compound 107, (2-((5-Chloro-2-((3-(3-chloro-4-fluorophenyl)-1H-indazol-5-yl)amino)pyrimidin-4-yl)amino)phenyl)dimethylphosphine oxide] | 1 to 10 nM | 1 to 10 nM | 63 % of Con. | 11 % of Con.
CP(C)(=O)c1ccccc1Nc1nc(Nc2ccc3[nH]nc(-c4cccc(C#N)c4)c3c2)ncc1Cl [compound 116, 3-(5-((5-Chloro-4-((2-(dimethylphosphoryl)phenyl)amino)pyrimidin-2-yl)amino)-1H-indazol-3-yl)benzonitrile] | 1 to 10 nM | 10 to 100 nM | 32 % of Con. | 19 % of Con.

More lines, main results first:

IC50 [1] | IC50 [2] | SMILES | Cell viability (% of Con. 10 μM) HepG2 (HepG2 cancer cells) | Cell viability (% of Con. 10 μM) HS746T (HS746T cancer cells)
1 to 10 nM | 1 to 10 nM | CP(C)(=O)c1ccccc1Nc1nc(Nc2ccc3[nH]ccc3c2)ncc1Cl [compound 65, (2-((2-((1H-Indol-5-yl)amino)-5-chloropyrimidin-4-yl)amino)phenyl)dimethylphosphine oxide] | 20 % of Con. | 23 % of Con.
100 to 1000 nM | 100 to 1000 nM | CC1(C)CCC(C)(C)c2cc(Nc3ncc(Cl)c(Nc4ccccc4P(C)(C)=O)n3)ccc21 [compound 7, (2-((5-Chloro-2-((5,5,8,8-tetramethyl-5,6,7,8-tetrahydronaphthalen-2-yl)amino)pyrimidin-4-yl)amino)phenyl)dimethylphosphine oxide] | 75 % of Con. | 103 % of Con.
> 1000 nM | > 1000 nM | CP(C)(=O)c1ccccc1Nc1nc(Nc2ccncc2)ncc1Cl [compound 15, (2-((5-Chloro-2-(pyridin-4-ylamino)pyrimidin-4-yl)amino)phenyl) dimethylphosphine oxide] | 116 % of Con. | 110 % of Con.
1 to 10 nM | 1 to 10 nM | CP(C)(=O)c1ccccc1Nc1nc(Nc2ccc3[nH]nc(-c4ccncc4)c3c2)ncc1Cl [compound 104, (2-((5-Chloro-2-((3-(pyridin-4-yl)-1H-indazol-5-yl)amino)pyrimidin-4-yl)amino)phenyl)dimethylphosphine oxide] | 30 % of Con. | 11 % of Con.
1 to 10 nM | 1 to 10 nM | CC(=O)N1CC=C(c2n[nH]c3ccc(Nc4ncc(Cl)c(Nc5ccccc5P(C)(C)=O)n4)cc23)CC1 [compound 99, 1-(4-(5-((5-Chloro-4-((2-(dimethylphosphoryl)phenyl)amino)pyrimidin-2-yl)amino)-1H-indazol-3-yl)-3,6-dihydropyridin-1(2H)-yl)ethan-1-one] | 26 % of Con. | 9 % of Con.
1 to 10 nM | 1 to 10 nM | CP(C)(=O)c1ccccc1Nc1nc(Nc2ccc3c(c2)CNCC3)ncc1Cl [compound 47, (2-((5-Chloro-2-((1,2,3,4-tetrahydroisoquinolin-7-yl)amino)pyrimidin-4-yl)amino)phenyl)dimethylphosphine oxide] | 24 % of Con. | 8 % of Con.
1 to 10 nM | 1 to 10 nM | CP(C)(=O)c1ccccc1Nc1nc(Nc2ccc3c(c2)CCNC3)ncc1Cl [compound 49, (2-((5-Chloro-2-((1,2,3,4-tetrahydroisoquinolin-6-yl)amino)pyrimidin-4-yl)amino)phenyl)dimethylphosphine oxide] | 31 % of Con. | 0.3 % of Con.
1 to 10 nM | 10 to 100 nM | CP(C)(=O)c1ccccc1Nc1nc(Nc2ccc3c(c2)C(=O)NCC3)ncc1Cl [compound 41, 7-((5-Chloro-4-((2-(dimethylphosphoryl)phenyl)amino)pyrimidin-2-yl)amino)-3,4-dihydroisoquinolin-1(2H)-one] | 26 % of Con. | 33 % of Con.
> 1000 nM | > 1000 nM | CP(C)(=O)c1ccccc1Nc1nc(NCc2ccc(F)cc2)ncc1Cl [compound 12, (2-((5-Chloro-2-((4-fluorobenzyl)amino)pyrimidin-4-yl)amino)phenyl)dimethylphosphine oxide] | 85 % of Con. | 97 % of Con.
